Data from patent publication US9382276B2, “Water-soluble O-carbonyl phosphoramidate prodrugs for therapeutic administration” (MicuRx Pharmaceuticals, Inc., priority 2014, dated 2016).
Values after ≈ are worked out from the molar mass of the structure shown.

Assays:
[1] = pH range of about 3-9
[2] = system: Staphylococcus aureus strain SAU1018; assay: mouse peritonitis infection model (survival, ED50); assay type: in vivo; conditions: parent drug control in same test, in 20% aqueous beta-hydroxypropylcyclodextrin (HPCD) formulation, read-out: ED50 (effective dose for survival of 50% of animals)
in vivo = conditions: rat, iv, 10 mg/kg
physchem = conditions: water or conventional aqueous solutions, thermodynamic from solid

In the case of O=C1C=CN(c2c(F)cc(N3C[C@H](CNc4ccon4)OC3=O)c(F)c2F)CC1 [MRX-I], the “pH dependence of solubility in water” value [1] is reported as “virtually pH-independent”, the ED50 [2] is reported as 10 mg/kg and the AUC (in vivo) is reported as about 25400 ng·h/mL. It also gave a solubility (physchem) of about 250 µg/mL (≈ 612 µM).
